From publication PMC6227840 (Open Medicine, 2018)
Like-named read-outs stand apart in the source and are kept apart here.

What was measured:
[1] = Population pharmacokinetic; conditions: normal renal function
[2] = cited from earlier work
[3] = cited from earlier work; remark: listed apart in the source

central volume of distribution ([1]; base model, n = 32): 7.12 L
Clearance of vancomycin – CL, Bootstrap analysis Estimate ([1]; final model parameter, 200 bootstrap runs): 0.0754 L/h
Central volume of distribution – V1, NONMEM Estimate ([1]; final model): 7.47 L
Central volume of distribution – V1, Bootstrap analysis Estimate ([1]; final model, 200 bootstrap runs): 7.55 L
central volume of distribution (base model, impaired renal function, n = 78): 22.7 L
central volume of distribution, renal impairment group versus normal group (base models, 22.7L vs. 7.12L): 3 times
Clearance of vancomycin – CL, Bootstrap analysis Estimate (final model parameter, impaired renal function, 200 bootstrap runs): 0.281 L/h
Central volume of distribution – V1, NONMEM Estimate (final model, impaired renal function): 29.9 L
Central volume of distribution – V1, Bootstrap analysis Estimate (final model, impaired renal function, 200 bootstrap runs): 30.7 L
SMILES: CN[C@H](CC(C)C)C(=O)N[C@H]1C(=O)N[C@@H](CC(N)=O)C(=O)N[C@H]2C(=O)N[C@H]3C(=O)N[C@H](C(=O)N[C@H](C(=O)O)c4cc(O)cc(O)c4-c4cc3ccc4O)[C@H](O)c3ccc(c(Cl)c3)Oc3cc2cc(c3O[C@@H]2O[C@H](CO)[C@@H](O)[C@H](O)[C@H]2O[C@H]2C[C@](C)(N)[C@H](O)[C@H](C)O2)Oc2ccc(cc2Cl)[C@H]1O [vancomycin, Vancomycin]
interstitial fluid concentration in brain tissue ([2]; healthy adults): 0 to 3.45 mg/L
interstitial fluid concentration in the brain ([2]; patients with meningitis): 6.4 to 11.1 mg/L
apparent volume of distribution ([3]; after intravenous administration, distributed in extracellular space): 0.4 to 1 L/kg
clearance [3]: about 2.64 l/h
